Source: ChEMBL document CHEMBL1201862, “PubChem BioAssay data set” (2004)
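Test compounds were applied to cells in 96-well plates for 48 hours at 5 doses. GI50 = concentration required for 50% inhibition of growth.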 Activity calls are given as the source filed them. Cut-off read from the data, not from the text of the source: active = GI50 up to about 1.1 µM and inactive = higher.

Tests used:
Test in all cases: NCI anticancer screen, dose series, 48 h
MDA-N = tested on: MDA-N
NCI-H226 = tested on: NCI-H226
OVCAR-3 = tested on: OVCAR-3
SNB-19 = tested on: SNB-19
BT-549 = tested on: BT-549
SK-MEL-5 = tested on: SK-MEL-5
HCT-116 = tested on: HCT-116
HOP-62 = tested on: HOP-62
K562 = tested on: K562
HL-60 = tested on: HL-60
TK-10 = tested on: TK-10
SK-MEL-28 = tested on: SK-MEL-28
786-0 = tested on: 786-0
SK-OV-3 = tested on: SK-OV-3
CAKI-1 = tested on: CAKI-1
SN12C = tested on: SN12C
DU-145 = tested on: DU-145
Hs-578T = tested on: Hs-578T
SW-620 = tested on: SW-620
MOLT-4 = tested on: MOLT-4

Measured: GI50

O=C1C(=O)c2c(oc(=O)c3ccccc23)-c2ccccc21
inactive: MDA-N 24.4 µM | NCI-H226 > 25 µM | OVCAR-3 7.05 µM | SNB-19 > 25 µM | BT-549 11.7 µM | SK-MEL-5 12.6 µM | HCT-116 11 µM | HOP-62 > 25 µM | K562 > 25 µM | HL-60 8.11 µM | TK-10 > 25 µM | SK-MEL-28 > 25 µM | 786-0 > 25 µM | SK-OV-3 > 25 µM | CAKI-1 > 25 µM | SN12C 14.5 µM | DU-145 > 25 µM | Hs-578T > 25 µM | SW-620 22.2 µM | MOLT-4 > 25 µM

C=C(C)OCOCCOC
inactive: MDA-N > 100 µM | NCI-H226 > 100 µM | OVCAR-3 > 100 µM | SNB-19 > 100 µM | BT-549 > 100 µM | SK-MEL-5 > 100 µM | HCT-116 > 100 µM | HOP-62 > 100 µM | K562 > 100 µM | HL-60 > 100 µM | TK-10 > 100 µM | SK-MEL-28 > 100 µM | 786-0 > 100 µM | SK-OV-3 > 100 µM | CAKI-1 > 100 µM | SN12C > 100 µM | DU-145 > 100 µM | Hs-578T > 100 µM | SW-620 > 100 µM | MOLT-4 > 100 µM

O=c1c2ccccc2n2n1Cc1ccccc1C2
inactive: MDA-N > 100 µM | NCI-H226 > 100 µM | OVCAR-3 > 100 µM | SNB-19 > 100 µM | BT-549 > 100 µM | SK-MEL-5 > 100 µM | HCT-116 > 100 µM | HOP-62 > 100 µM | K562 > 100 µM | HL-60 > 100 µM | TK-10 > 100 µM | SK-MEL-28 > 100 µM | 786-0 > 100 µM | SK-OV-3 > 100 µM | CAKI-1 > 100 µM | SN12C > 100 µM | DU-145 > 100 µM | Hs-578T 57.9 µM | SW-620 > 100 µM | MOLT-4 > 100 µM

c1ccc2[nH]c3[nH]c4[nH]c5ccccc5[nH]c4[nH]c3[nH]c2c1
inactive: MDA-N > 100 µM | NCI-H226 > 100 µM | OVCAR-3 > 100 µM | SNB-19 > 100 µM | BT-549 > 100 µM | SK-MEL-5 > 100 µM | HCT-116 > 100 µM | HOP-62 > 100 µM | K562 > 100 µM | HL-60 > 100 µM | TK-10 > 100 µM | SK-MEL-28 > 100 µM | 786-0 > 100 µM | SK-OV-3 > 100 µM | CAKI-1 > 100 µM | SN12C > 100 µM | DU-145 > 100 µM | Hs-578T 60.7 µM | SW-620 > 100 µM | MOLT-4 > 100 µM

CC(C)/C(=N\[N+](C)(C)C)c1ccccc1
inactive: MDA-N > 100 µM | NCI-H226 > 100 µM | OVCAR-3 > 100 µM | SNB-19 > 100 µM | BT-549 > 100 µM | SK-MEL-5 > 100 µM | HCT-116 > 100 µM | HOP-62 > 100 µM | K562 > 100 µM | HL-60 > 100 µM | TK-10 > 100 µM | SK-MEL-28 > 100 µM | 786-0 > 100 µM | SK-OV-3 > 100 µM | CAKI-1 > 100 µM | SN12C > 100 µM | DU-145 > 100 µM | Hs-578T > 100 µM | SW-620 > 100 µM | MOLT-4 > 100 µM
